Literature values in article PMC10930872, “Preparation, Structural Identification, and Screening of Egg-Derived Peptides with Facilitating Alcohol Metabolism Activity” (Foods, 2024).

How the values were obtained:
ethanol dehydrogenase = tested on: ethanol dehydrogenase; parameters: method as in doi:10.1016/j.lwt.2022.113376; conditions: ref [36]
hepatic ADH = conditions: ref [42],[43]
Source text: This has to do with the fact that eggs contain all EAAs. […] Ala is involved in hepatic gluconeogenesis, which oxidizes NADH + H^+ to NAD^+, thereby maintaining cytoplasmic NAD^+ concentrations and promoting alcohol metabolism. […] It is reported that HAA (Tyr, Trp, Gl ...

[1] = target: T1, alcohol dehydrogenase (ADH) (Saccharomyces cerevisiae, UniProt P00330); conditions: pentapeptide screened by Zan et al., 2023; ref [59]; read-out: EC50 of ADH activation
T1 sequence (P00330 1-348): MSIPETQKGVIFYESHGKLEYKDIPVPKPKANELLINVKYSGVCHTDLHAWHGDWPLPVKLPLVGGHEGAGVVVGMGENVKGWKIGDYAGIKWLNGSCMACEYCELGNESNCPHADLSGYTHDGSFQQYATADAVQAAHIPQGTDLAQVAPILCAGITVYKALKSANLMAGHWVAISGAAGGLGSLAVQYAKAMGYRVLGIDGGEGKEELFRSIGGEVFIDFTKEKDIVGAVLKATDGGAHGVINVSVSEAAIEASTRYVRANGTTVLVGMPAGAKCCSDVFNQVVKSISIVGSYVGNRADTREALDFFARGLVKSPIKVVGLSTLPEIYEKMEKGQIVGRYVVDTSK
Source text: GSH, a tripeptide composed of Glu, Cys, and Gly, is widely found in normal human cells, with the highest concentration in the liver. It plays an important role in scavenging free radicals, inhibiting inflammatory factors, relieving hangovers, and protecting the liver.

## Lys-Pro-Cys [KPC, chicken-derived tripeptide]
Ethanol dehydrogenase
  Stability of ethanol dehydrogenase: enhanced the stability of ethanol dehydrogenase

## CC(C)C[C@H](N)C(=O)O [Leu, L-leucine]
Hepatic ADH
  Hepatic ADH activity: significantly increase hepatic ADH activity

## ILPHF [pentapeptide screened by Zan et al., 2023]
[1]
  EC50: 1.6 µM
